Drawing on patent US8722849B2, “Polypeptides” (Novo Nordisk A/S, priority 2011, dated 2014), this text covers EC50 and solubility for four compounds.

In data set [1] the target is T1, human amylin receptor (amylin 3(a) receptor: human calcitonin receptor + RAMP-3) (Homo sapiens, UniProt O60896+P30988).
T1 construct: expressed in transfected cells; host or cells: BHK570
T1 sequence (P30988 25-474): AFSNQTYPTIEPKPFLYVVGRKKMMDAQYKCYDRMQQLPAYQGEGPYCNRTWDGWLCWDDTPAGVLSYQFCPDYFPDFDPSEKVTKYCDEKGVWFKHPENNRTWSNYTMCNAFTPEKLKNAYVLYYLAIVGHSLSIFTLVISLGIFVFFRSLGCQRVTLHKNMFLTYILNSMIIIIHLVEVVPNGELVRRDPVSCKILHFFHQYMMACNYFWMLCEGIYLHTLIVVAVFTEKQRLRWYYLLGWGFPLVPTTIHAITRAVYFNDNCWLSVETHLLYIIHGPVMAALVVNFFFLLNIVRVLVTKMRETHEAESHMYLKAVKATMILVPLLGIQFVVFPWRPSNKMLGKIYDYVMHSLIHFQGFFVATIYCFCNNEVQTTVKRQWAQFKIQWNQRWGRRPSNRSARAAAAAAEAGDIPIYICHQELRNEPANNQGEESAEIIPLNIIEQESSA
T1 sequence (O60896 24-148 partner): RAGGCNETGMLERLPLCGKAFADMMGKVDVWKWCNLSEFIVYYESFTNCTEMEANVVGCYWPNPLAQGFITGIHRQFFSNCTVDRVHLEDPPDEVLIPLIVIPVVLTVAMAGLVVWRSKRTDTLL
Nature of the data set: Assay (II)a functional CRE-luciferase assay, human amylin receptor. Type of data set: cell-based.

Data set [2] addresses T2, human calcitonin receptor (Homo sapiens, UniProt P30988).
T2 construct: expressed in transfected cells; host or cells: BHK570
T2 sequence (P30988 25-474): T1 sequence (P30988 25-474)
Nature of the data set: Assay (II)a functional CRE-luciferase assay, human calcitonin receptor. The class given is cell-based. Conditions: Table 7; human calcitonin (CTa) receptor.

Data set [3] can be described thus: Assay (IV) determination of solubility. Type of data set: physicochemical. An outline of the steps:
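Polypeptide in water (~500 nmol/ml stock) was mixed 1:1 with 100 mM buffers from pH 3.0 to 8.0 (glycylglycine pH 3.0–5.0; bistrispropane pH 6.0–8.0). After 18 hours at room temperature, samples were centrifuged and the polypeptide remaining in solution was quantified by HPLC.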

[4] abbreviates: Table 2, BHK amylin 3(a)-receptor/CRE-luc cells.
[5] abbreviates: bistrispropane buffer, pH 6, pH 6.0, read-out: Solubility pH 6.0.
Where [6] appears, read: bistrispropane buffer, pH 6.5, pH 6.5, read-out: Solubility pH 6.5.
[7] abbreviates: bistrispropane buffer, pH 7, pH 7.0, 18 hours at room temperature, Table 3, read-out: Solubility pH 7.0.
Setting [8] is: bistrispropane buffer, pH 7, pH 7.0, read-out: Solubility pH 7.0.
Where [9] appears, read: bistrispropane buffer, pH 7.5, pH 7.5, read-out: Solubility pH 7.5.
Setting [10] is: bistrispropane buffer, pH 8, pH 8.0, read-out: Solubility pH 8.0.
Where [11] appears, read: glycylglycine buffer, pH 3, pH 3.0, read-out: Solubility pH 3.0.
[12] abbreviates: glycylglycine buffer, pH 4, pH 4.0, 18 hours at room temperature, Table 2, read-out: Solubility pH 4.0.
Where [13] appears, read: glycylglycine buffer, pH 4, pH 4.0, read-out: Solubility pH 4.0.
[14] abbreviates: glycylglycine buffer, pH 5, pH 5.0, read-out: Solubility pH 5.0.

Each structure is given as a SMILES string. Values after ≈ are worked out from the molar mass of the structure shown. Read-outs that look alike come from different tables or passages of the source. Starred links: 1 amine or outer side, 2 acyl side, 3 side chain; linkers in the order of their positions; H or OH if unused. Positions of bridges follow the written chain, without caps; N, C: chain ends. Residues, ends and D or L forms follow the SMILES beside them. *: point of attachment. C20 diacid = O=C(O)CCCCCCCCCCCCCCCCCCC(=O)*; γGlu = O=C(O)[C@H](CCC(=O)[*:2])N[*:1]

In general, EC50 refers to the concentration that produces a half-maximal response. By solubility is commonly meant the dissolved amount per volume that the medium holds. In the case of `CC[C@H](C)[C@H](NC(=O)[C@@H]1CCCN1C(=O)CNC(=O)[C@H](Cc1ccccc1)NC(=O)[C@H](CC(N)=O)NC(=O)[C@H](CC(N)=O)NC(=O)[C@H](CO)NC(=O)[C@H](CO)NC(=O)[C@H](Cc1c[nH]cn1)NC(=O)[C@H](CCCNC(=N)N)NC(=O)[C@H](CC(C)C)NC(=O)[C@H](Cc1ccccc1)NC(=O)[C@H](CCC(=O)O)NC(=O)[C@H](C)NC(=O)[C@H](CC(C)C)NC(=O)[C@H](CCCNC(=N)N)NC(=O)[C@H](CCC(N)=O)NC(=O)[C@@H](NC(=O)[C@H](C)NC(=O)[C@@H]1CSSC[C@H](NC(=O)[C@H](CCCNC(=N)N)NC(=O)[C@H](CCC(=O)O)NC(=O)[C@H](CCC(=O)O)NC(=O)CC[C@H](NC(=O)CCCCCCCCCCCCCCCCCCC(=O)O)C(=O)O)C(=O)N[C@@H](CC(N)=O)C(=O)N[C@@H]([C@@H](C)O)C(=O)N[C@@H](C)C(=O)N[C@@H]([C@@H](C)O)C(=O)N1)[C@@H](C)O)C(=O)N[C@@H](CC(C)C)C(=O)N1CCC[C@H]1C(=O)N1CCC[C@H]1C(=O)N[C@H](C(=O)N[C@@H](CC(N)=O)C(=O)N[C@H](C(=O)NCC(=O)N[C@@H](CO)C(=O)N[C@@H](CC(N)=O)C(=O)N[C@H](C(=O)N1CCC[C@H]1C(N)=O)[C@@H](C)O)C(C)C)[C@@H](C)O` [Example 155, N-alpha-[(S)-4-Carboxy-4-(19-carboxynonadecanoylamino)butyryl]-Glu-Glu-[Arg1,Glu14,Arg17,Pro37]-pramlintide] ({C20 diacid-γGlu}-EERCNTATCATQRLAEFLRHSSNNFGPILPPTNVGSNTP-NH2; disulfide 4-9 (inferred); C-terminus assumed), the EC50 in data set [1] (setting [4]) is 0.313 nM; in data set [2] it was 0.526 nM. Further, the solubility at 18 h in data set [3] (setting [5]), in data set [3] (setting [6]), in data set [3] (setting [7]), in data set [3] (setting [8]), in data set [3] (setting [9]) and in data set [3] (setting [10]) was greater than 200 µM in each case. Besides, the solubility at 18 h in data set [3] (setting [11]), in data set [3] (setting [12]), in data set [3] (setting [13]) and in data set [3] (setting [14]) was greater than 200 µM in each case.

Take `CC[C@H](C)[C@H](NC(=O)[C@@H]1CCCN1C(=O)CNC(=O)[C@H](Cc1ccccc1)NC(=O)[C@H](CCC(N)=O)NC(=O)[C@H](CCC(N)=O)NC(=O)[C@H](CO)NC(=O)[C@H](CO)NC(=O)[C@H](CCCNC(=N)N)NC(=O)[C@H](Cc1c[nH]cn1)NC(=O)[C@H](CC(C)C)NC(=O)[C@H](Cc1ccccc1)NC(=O)[C@H](CCC(=O)O)NC(=O)[C@H](C)NC(=O)[C@H](CC(C)C)NC(=O)[C@H](CCCNC(=N)N)NC(=O)[C@H](CCC(N)=O)NC(=O)[C@@H](NC(=O)[C@H](C)NC(=O)[C@@H]1CSSC[C@H](NC(=O)CC[C@H](NC(=O)CCCCCCCCCCCCCCCCCCC(=O)O)C(=O)O)C(=O)NCC(=O)N[C@@H]([C@@H](C)O)C(=O)N[C@@H](C)C(=O)N[C@@H]([C@@H](C)O)C(=O)N1)[C@@H](C)O)C(=O)N[C@@H](CC(C)C)C(=O)N1CCC[C@H]1C(=O)N1CCC[C@H]1C(=O)N[C@H](C(=O)N[C@@H](CCC(=O)O)C(=O)N[C@H](C(=O)NCC(=O)N[C@@H](CO)C(=O)NCC(=O)N[C@H](C(=O)N[C@@H](Cc1ccc(O)cc1)C(N)=O)[C@@H](C)O)C(C)C)[C@@H](C)O` [Example 4, N-alpha-[(S)-4-Carboxy-4-(19-carboxynonadecanoylamino)butyryl]-[des1,Gly3,Glu14,His17,Arg18,Gln21,Gln22,Glu31,Gly35]-pramlintide] ({C20 diacid-γGlu}-CGTATCATQRLAEFLHRSSQQFGPILPPTEVGSGTY-NH2; disulfide 1-6 (inferred)): the EC50 in data set [1] (setting [4]) is 0.253 nM; in data set [2], 0.284 nM. Further, the solubility at 18 h was 42 µM (≈ 180 µg/mL) in data set [3] (setting [5]); 82 µM (≈ 351 µg/mL) in data set [3] (setting [6]); 146 µM (≈ 624 µg/mL) in data set [3] (setting [7]); 146 µM (≈ 624 µg/mL) in data set [3] (setting [8]); 183 µM (≈ 782 µg/mL) in data set [3] (setting [9]); 190 µM (≈ 812 µg/mL) in data set [3] (setting [10]). For the same compound, the solubility at 18 h in data set [3] (setting [11]) is greater than 200 µM; in data set [3] (setting [12]) it was 120 µM (≈ 513 µg/mL); in data set [3] (setting [13]), 120 µM (≈ 513 µg/mL).

With `CC[C@H](C)[C@H](NC(=O)[C@@H]1CCCN1C(=O)CNC(=O)[C@H](Cc1ccccc1)NC(=O)[C@H](CC(N)=O)NC(=O)[C@H](CC(N)=O)NC(=O)[C@H](CO)NC(=O)[C@H](CO)NC(=O)[C@H](Cc1cnc[nH]1)NC(=O)[C@H](Cc1cnc[nH]1)NC(=O)[C@H](CC(C)C)NC(=O)[C@H](Cc1ccccc1)NC(=O)[C@H](CCC(=O)O)NC(=O)[C@H](C)NC(=O)[C@H](CC(C)C)NC(=O)[C@H](CCCNC(=N)N)NC(=O)[C@H](CCC(N)=O)NC(=O)[C@@H](NC(=O)[C@H](C)NC(=O)[C@@H]1CSSC[C@H](NC(=O)[C@H](CCC(=O)O)NC(=O)CC[C@H](NC(=O)CCCCCCCCCCCCCCCCCCC(=O)O)C(=O)O)C(=O)N[C@@H](CC(N)=O)C(=O)N[C@@H]([C@@H](C)O)C(=O)N[C@@H](C)C(=O)N[C@@H]([C@@H](C)O)C(=O)N1)[C@@H](C)O)C(=O)N[C@@H](CC(C)C)C(=O)N1CCC[C@H]1C(=O)N1CCC[C@H]1C(=O)N[C@H](C(=O)N[C@@H](CC(N)=O)C(=O)N[C@H](C(=O)NCC(=O)N[C@@H](CO)C(=O)N[C@@H](CC(N)=O)C(=O)N[C@H](C(=O)N[C@@H](Cc1ccc(O)cc1)C(N)=O)[C@@H](C)O)C(C)C)[C@@H](C)O` [Example 29, N-alpha-[(S)-4-Carboxy-4-(19-carboxynonadecanoylamino)butyryl]-[Glu1,Glu14,His17]-pramlintide] ({C20 diacid-γGlu}-ECNTATCATQRLAEFLHHSSNNFGPILPPTNVGSNTY-NH2; disulfide 2-7), the concentration for a half-maximal effect (EC50) was 0.377 nM in data set [1] (setting [4]) and 0.657 nM in data set [2]. Also, the solubility at 18 h in data set [3] (setting [5]), in data set [3] (setting [6]), in data set [3] (setting [7]), in data set [3] (setting [8]), in data set [3] (setting [9]) and in data set [3] (setting [10]) was greater than 200 µM in each case. For the same compound, the solubility at 18 h in data set [3] (setting [11]) is greater than 200 µM; in data set [3] (setting [12]), greater than 200 µM; in data set [3] (setting [13]), greater than 200 µM; in data set [3] (setting [14]), 107 µM (≈ 477 µg/mL).

`CC(C)C[C@H](NC(=O)[C@H](CCCNC(=N)N)NC(=O)[C@H](CCC(N)=O)NC(=O)[C@@H](NC(=O)[C@H](C)NC(=O)[C@@H]1CSSC[C@H](NC(=O)[C@H](Cc2c[nH]cn2)NC(=O)CC[C@H](NC(=O)CCCCCCCCCCCCCCCCCCC(=O)O)C(=O)O)C(=O)N[C@@H](CC(N)=O)C(=O)N[C@@H]([C@@H](C)O)C(=O)N[C@@H](C)C(=O)N[C@@H]([C@@H](C)O)C(=O)N1)[C@@H](C)O)C(=O)N[C@@H](C)C(=O)N[C@@H](CCC(=O)O)C(=O)N[C@@H](Cc1ccccc1)C(=O)N[C@@H](CC(C)C)C(=O)N[C@@H](Cc1c[nH]cn1)C(=O)N[C@@H](CCCNC(=N)N)C(=O)N[C@@H](CO)C(=O)N[C@@H](CO)C(=O)N[C@@H](CC(N)=O)C(=O)N[C@@H](CCC(=O)O)C(=O)N[C@@H](Cc1ccccc1)C(=O)NCC(=O)N[C@@H](C)C(=O)N[C@@H](CCCNC(=N)N)C(=O)N[C@@H](CC(C)C)C(=O)N[C@@H](CO)C(=O)N[C@@H](CO)C(=O)N[C@H](C(=O)N[C@@H](CC(N)=O)C(=O)N[C@H](C(=O)NCC(=O)N[C@@H](CO)C(=O)N[C@@H](CC(N)=O)C(=O)N[C@H](C(=O)N[C@@H](Cc1ccc(O)cc1)C(N)=O)[C@@H](C)O)C(C)C)[C@@H](C)O` [Example 8, N-alpha-[(S)-4-Carboxy-4-(19-carboxynonadecanoylamino)butyryl]-[His1,Glu14,His17,Arg18,Glu22,Ala25,Arg26,Ser28,Ser29]-pramlintide] ({C20 diacid-γGlu}-HCNTATCATQRLAEFLHRSSNEFGARLSSTNVGSNTY-NH2; disulfide 2-7 (inferred)): the EC50 was found to be 0.127 nM in data set [1] (Table 6, human amylin receptor) and 0.279 nM in data set [2]. The solubility at 18 h was 1 µM (≈ 4.5 µg/mL) in data set [3] (setting [5]); 1 µM (≈ 4.5 µg/mL) in data set [3] (setting [6]); 1 µM (≈ 4.5 µg/mL) in data set [3] (setting [8]); 1 µM (≈ 4.5 µg/mL) in data set [3] (setting [9]); 3 µM (≈ 13.5 µg/mL) in data set [3] (setting [10]); 178 µM (≈ 800 µg/mL) in data set [3] (setting [11]). In addition, the solubility at 18 h is 93 µM (≈ 418 µg/mL) in data set [3] (setting [13]) and 2 µM (≈ 8.99 µg/mL) in data set [3] (setting [14]).
